Data reported in patent publication US11168081B2, “Alkaloid derivative having angiogenesis inhibitory effect, and pharmaceutical composition containing same” (SEOUL NATIONAL UNIVERSITY R&DB FOUNDATION, priority 2017, dated 2021).

Key:
HUVECs [1] = experiment: HUVEC cell growth assay (MTT); assay type: cell-based, human; details: for IC50: Homo sapiens, HUVEC, MTT, 24 hours, in the presence of VEGF (50 ng/mL)
Method: Human umbilical vascular endothelial cells (HUVECs) were obtained from the ATCC (Rockville, Md.) and cultured in EGM-2 (Lonza, Walkersville, Md.) supplemented with 10% FBS at 37° C. under a 5% CO2 atmosphere.
Cell growth was assessed by MTT assay. HUVECs (8×10^3 cells/well) were seeded onto a 96-well plate with EGM-2 medium supplemented with 10% FBS for 24 hours. The next day, the culture medium was removed, and the cells were then incubated with serum-free medium for 12 hours. Following serum starvation, the cells were cultured in fresh 2% FBS/EBM-2 medium containing various concentrations of the test compound for 24 hours in the presence of VEGF (50 ng/mL). After the incubation, an MTT solution was added, and the plate was incubated for additional 4 hours. The formazan product was dissolved in DMSO, and the absorbance was detected at 570 nm using a VersaMax ELISA microplate reader (Molecular Devices, Sunnyvale, Calif.).
(§1) The same experiment was carried out for sunitinib as a positive control.

HUVECs [2] = experiment: In vitro tube formation assay; assay type: cell-based, human; details: for IC50: Homo sapiens, HUVEC, HUVECs on Matrigel, 8 hours, VEGF-induced tube formation; for Selectivity Index (SI): ratio of the IC50 for HUVEC cell growth to the IC50 for tube formation
Method: Matrigel (70 μl/well) was coated onto a 96-well plate and polymerized for 30 minutes at 37° C. under a 5% CO2 atmosphere. HUVECs (1.5×10^4 cells/well) and various concentrations of the compound were seeded onto each well of the Matrigel-coated 96-well plate. The cells were then incubated for 8 hours at 37° C. under a 5% CO2 atmosphere. The formation of endothelial cell tubular structures was visualized under an inverted microscope and photographed (Olympus Optical Co. Ltd., Tokyo, Japan). The inhibition rate of tube formation was determined using the following equation. tube formation inhibition rate (%)=[1−(average tube numbersample−average tube numberVEGF(−))/(average tube numberVEGF(+)−average tube numberVEGF(−))]×100 [Equation 1]
The IC50 value was calculated using nonlinear regression analysis using TableCurve 2D v5.01 software (Systat Software Inc., Richmond, Calif., USA).
as §1
The endothelial cell tubular structure formation assay was performed in the same manner as in the Experimental Example 1.

[3] = tested on: human umbilical vascular endothelial cell (HUVEC); details: Korean Patent Application Publication No. 10-2012-0122705; cited from earlier work

SMILES | IC50 (HUVECs [1]) [µM] | IC50 (HUVECs [2]) [µM] | Selectivity Index (SI) (HUVECs [2]) | higher inhibitory effect on the cell growth of HUVECs (HUVECs [1]; sunitinib relative to compound (I-7)) [fold] | inhibition of human umbilical vascular endothelial cell (HUVEC) [3]
CCCNCCc1cn(C(c2ccc(OC)c(OC)c2)c2nc3ccc(CC)cc3s2)nn1 (centres unmarked) [Compound I-3, N-(2-(1-((3,4-dimethoxyphenyl)(6-ethylbenzo[d]thiazol-2-yl)methyl)-1H-1,2,3-triazol-4-yl)ethyl)propan-1-amine] | 38.6 | 1.39 | 27.8 |  | 
CCc1ccc2nc(C(c3ccc(OC)c(OC)c3)n3cnc(CCNC4CCCC4)c3)sc2c1 (centres unmarked) [Compound I-13, N-(2-(1-((3,4-dimethoxyphenyl)(6-ethylbenzo[d]thiazol-2-yl)methyl)-1H-imidazol-4-yl)ethyl)cyclopentanamine] | 30.6 | 1.56 | 19.63 |  | 
CCc1ccc2nc(C(c3ccc(OC)c(OC)c3)n3cnc(CCN4CCCCC4)c3)sc2c1 (centres unmarked) [Compound I-12, 2-((3,4-dimethoxyphenyl)(4-(2-(piperidin-1-yl)ethyl)-1H-imidazol-1-yl)methyl)-6-ethylbenzo[d]thiazole] | 75.6 | 3.4 | 22.23 |  | 
CCc1ccc2cc(C(c3ccc(O)c(O)c3)n3cc(CCN(C)C)nn3)oc2c1 (centres unmarked) [Compound I-8, 4-((4-(2-(dimethylamino)ethyl)-1H-1,2,3-triazol-1-yl)(6-ethylbenzofuran-2-yl)methyl)benzene-1,2-diol] | 22 | 6.1 | 3.61 |  | 
CCc1ccc2nc(C(c3ccc(OC)c(OC)c3)n3cc(CCN4CCOCC4)nn3)sc2c1 (centres unmarked) [Compound I-6, 4-(2-(1-((3,4-dimethoxyphenyl)(6-ethylbenzo[d]thiazol-2-yl)methyl)-1H-1,2,3-triazol-4-yl)ethyl)morpholine] | > 100 | 3.93 |  |  | 
CCc1ccc2nc(C(c3ccc(O)c(O)c3)n3cc(CCN(C)C)nn3)sc2c1 (centres unmarked) [Compound I-1, 4-((4-(2-(dimethylamino)ethyl)-1H-1,2,3-triazol-1-yl)(6-ethylbenzo[d]thiazol-2-yl)methyl)benzene-1,2-diol] | 37.3 | 3.04 | 12.3 |  | 
CCc1ccc2nc(C(c3ccc(OC)c(OC)c3)n3cc(CN4CCCCC4)nn3)sc2c1 (centres unmarked) [Compound I-15, 2-((3,4-dimethoxyphenyl)(4-(piperidin-1-ylmethyl)-1H-1,2,3-triazol-1-yl)methyl)-6-ethylbenzo[d]thiazole] | > 100 | 2.46 | >40.65 |  | 
CCc1ccc2nc(C(c3ccc(OC)c(OC)c3)n3cc(CCNC4CCCC4)nn3)sc2c1 (centres unmarked) [Compound I-4, N-(2-(1-((3,4-dimethoxyphenyl)(6-ethylbenzo[d]thiazol-2-yl)methyl)-1H-1,2,3-triazol-4-yl)ethyl)cyclopentanamine] | 19.4 | 1.02 | 19.0 |  | 
CCc1ccc2nc(C(c3ccc(OC)c(OC)c3)n3cc(CCCN4CCCCC4)nn3)sc2c1 (centres unmarked) [Compound I-16, 2-((3,4-dimethoxyphenyl)(4-(3-(piperidin-1-yl)propyl)-1H-1,2,3-triazol-1-yl)methyl)-6-ethylbenzo[d]thiazole] | 30.5 | 2.28 | 13.38 |  | 
CCc1ccc2nc(C(c3ccc(OC)c(OC)c3)n3cc(CCN(C)C)nn3)sc2c1 (centres unmarked) [Compound I-2, 2-(1-((3,4-dimethoxyphenyl)(6-ethylbenzo[d]thiazol-2-yl)methyl)-1H-1,2,3-triazol-4-yl)-N,N-dimethylethan-1-amine] | 93.5 | 8.27 | 11.3 |  | 
CCc1ccc2nc(C(c3ccc(OC)c(OC)c3)n3cnc(CCN(C)C)c3)sc2c1 (centres unmarked) [Compound I-10, 2-(1-((3,4-dimethoxyphenyl)(6-ethylbenzo[d]thiazol-2-yl)methyl)-1H-imidazol-4-yl)-N,N-dimethylethan-1-amine] | > 100 | 4.87 |  |  | 
CCc1ccc2nc(C(c3ccc(O)c(O)c3)n3cc(CCN(C)C)nn3)oc2c1 (centres unmarked) [Compound I-9, 4-((4-(2-(dimethylamino)ethyl)-1H-1,2,3-triazol-1-yl)(6-ethylbenzo[d]oxazol-2-yl)methyl)benzene-1,2-diol] | > 100 | > 20 |  |  | 
CCc1ccc2nc(C(c3ccc(OC)c(OC)c3)n3cc(CCN4CCCC4)nn3)sc2c1 (centres unmarked) [Compound I-5, 2-((3,4-dimethoxyphenyl)(4-(2-(pyrrolidin-1-yl)ethyl)-1H-1,2,3-triazol-1-yl)methyl)-6-ethylbenzo[d]thiazole] | 70.3 | 2.84 | 24.8 |  | 
CCN(CC)CCNC(=O)c1c(C)[nH]c(/C=C2\C(=O)Nc3ccc(F)cc32)c1C [Sunitinib, sunitinib, reference compound] | 9.92 | 0.546 | 18.2 | 4.8 | 
CCc1ccc2nc(C(c3ccc(OC)c(OC)c3)n3cnc(CCN4CCCC4)c3)sc2c1 (centres unmarked) [Compound I-14, 2-((3,4-dimethoxyphenyl)(4-(2-(pyrrolidin-1-yl)ethyl)-1H-imidazol-1-yl)methyl)-6-ethylbenzo[d]thiazole] | 95.7 | 1.53 | 62.56 |  | 
CN(C)CCc1cn(C(c2ccc(O)c(O)c2)C2Oc3ccc(C=COS(=O)(=O)[O-])cc3O2)cn1.[Na+] (centres unmarked) [wondonin, Wondonin] |  |  |  |  | does not inhibit
CCCN(CCC)CCc1cn(C(c2ccc(OC)c(OC)c2)c2nc3ccc(CC)cc3s2)cn1 (centres unmarked) [Compound I-11, N-(2-(1-((3,4-dimethoxyphenyl)(6-ethylbenzo[d]thiazol-2-yl)methyl)-1H-imidazol-4-yl)ethyl)-N-propylpropan-1-amine] | 38.6 | 1.82 | 21.18 |  | 
